Source: ChEMBL document CHEMBL5154942, “Discovery of Clinical Candidate NTQ1062 as a Potent and Bioavailable Akt Inhibitor for the Treatment of Human Tumors” (J Med Chem, 2022)

Assays:
[1] = molecular target: RAC-alpha serine/threonine-protein kinase (Homo sapiens, UniProt P31749); assay: Inhibition of recombinant AKT1 (104 to 480 end residues) (unknown origin) catalytic domain expressed in Sf21 cells using peptide substrate incubated for 1 hr in presence of ATP by caliper off-chip mobility shift assay
Sequence of RAC-alpha serine/threonine-protein kinase (P31749 whole entry, the tested form may be a part): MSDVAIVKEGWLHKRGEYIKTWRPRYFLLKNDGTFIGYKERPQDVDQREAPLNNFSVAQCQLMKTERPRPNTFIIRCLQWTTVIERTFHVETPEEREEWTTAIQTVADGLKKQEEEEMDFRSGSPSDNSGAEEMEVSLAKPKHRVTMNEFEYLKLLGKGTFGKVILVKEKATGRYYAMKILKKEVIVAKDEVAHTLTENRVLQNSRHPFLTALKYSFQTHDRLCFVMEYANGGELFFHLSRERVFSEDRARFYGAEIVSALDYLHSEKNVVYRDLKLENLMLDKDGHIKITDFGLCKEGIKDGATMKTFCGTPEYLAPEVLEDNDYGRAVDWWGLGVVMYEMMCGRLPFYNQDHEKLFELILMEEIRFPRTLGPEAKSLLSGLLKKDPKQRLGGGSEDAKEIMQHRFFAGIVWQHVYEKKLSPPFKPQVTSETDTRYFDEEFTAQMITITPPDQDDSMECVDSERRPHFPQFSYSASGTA

LNCaP [2] = assay: Antiproliferative activity against human LNcap assessed as reduction in cell viability incubated for 72 hrs by Cell Titer Glo luminescent assay
LNCaP [3] = assay: In vivo antitumor activity against human LNCap cells xenografted in NCG mouse assessed as tumor growth inhibition at 50 mg/kg administered once daily for 18 to 21 days relative to control; type: functional; conditions: time 18-21 day, read-out: TGI
[4] = AUC (0 to infinity) in overnight fasted ICR mouse at 10 mg/kg, po measured upto 24 hrs by UPLC-MS/MS analysis; type: ADME, organism-based; parameters: dose 10 mg/kg, time < 24 hrs, route po; conditions: in vivo
TOV21G = assay: cells; conditions: Homo sapiens, 72 h
Description: Antiproliferative activity against human TOV-21G habouring PTEN deletion and PIK3CA mutation/amplication assessed as reduction in cell viability incubated for 72 hrs by Cell Titer Glo luminescent assay

CAL-51 = assay: cells; conditions: Homo sapiens, CAL-51, 72 h
Description: Antiproliferative activity against human CAL-51 habouring PTEN deletion and PIK3CA mutation/amplication assessed as reduction in cell viability incubated for 72 hrs by Cell Titer Glo luminescent assay

RL95-2 = assay: cells; conditions: Homo sapiens, RL95-2, 72 h
Description: Antiproliferative activity against human RL95-2 habouring PTEN deletion mutant assessed as reduction in cell viability incubated for 72 hrs by Cell Titer Glo luminescent assay

PC-3 = assay: cells; conditions: Homo sapiens, PC-3, 72 h
Description: Antiproliferative activity against human PC-3 habouring PTEN deletion and PIK3CA mutation/amplication assessed as reduction in cell viability incubated for 72 hrs by Cell Titer Glo luminescent assay

T47D = assay: cells; conditions: Homo sapiens, 72 h
Description: Antiproliferative activity against human T47D habouring PIK3CA mutation/amplication assessed as reduction in cell viability incubated for 72 hrs by Cell Titer Glo luminescent assay

ZR-75-1 = assay: cells; conditions: Homo sapiens, ZR-75-1, 72 h
Description: Antiproliferative activity against human ZR-75-1 habouring PTEN deletion mutant assessed as reduction in cell viability incubated for 72 hrs by Cell Titer Glo luminescent assay

C-33-A = assay: cells; conditions: Homo sapiens, 72 h
Description: Antiproliferative activity against human C-33-A habouring PTEN deletion mutant assessed as reduction in cell viability incubated for 72 hrs by Cell Titer Glo luminescent assay

cells = conditions: Homo sapiens, COLO 704, 72 h
Cytochrome P450 2C19 = Cytochrome P450 2C19 (Homo sapiens, UniProt P33261); assay: Inhibition of CYP2C19 in human liver microsomes at 0.01 to 30 uM using mephenytoin as substrate in presence of NADPH by UPLC-MS/MS analysis; type: ADME, Microsome
Sequence of Cytochrome P450 2C19 (P33261 whole entry): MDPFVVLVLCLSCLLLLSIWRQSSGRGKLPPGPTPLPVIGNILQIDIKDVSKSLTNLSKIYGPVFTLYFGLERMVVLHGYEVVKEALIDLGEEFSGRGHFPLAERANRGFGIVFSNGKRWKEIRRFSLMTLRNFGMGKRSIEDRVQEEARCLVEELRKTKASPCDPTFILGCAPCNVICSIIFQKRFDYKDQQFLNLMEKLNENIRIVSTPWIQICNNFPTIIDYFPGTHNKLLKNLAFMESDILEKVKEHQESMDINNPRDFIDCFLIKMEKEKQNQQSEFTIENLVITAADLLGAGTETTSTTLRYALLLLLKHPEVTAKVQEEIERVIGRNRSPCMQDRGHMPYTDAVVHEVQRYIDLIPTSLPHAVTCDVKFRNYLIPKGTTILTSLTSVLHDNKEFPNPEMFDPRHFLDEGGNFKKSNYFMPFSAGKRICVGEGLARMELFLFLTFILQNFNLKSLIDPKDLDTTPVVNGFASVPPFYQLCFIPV

Cytochrome P450 2C9 = Cytochrome P450 2C9 (Homo sapiens, UniProt P11712); assay: Inhibition of CYP2C9 in human liver microsomes at 0.01 to 30 uM using diclofenac as substrate in presence of NADPH by UPLC-MS/MS analysis; type: ADME, Microsome
Sequence of Cytochrome P450 2C9 (P11712 whole entry): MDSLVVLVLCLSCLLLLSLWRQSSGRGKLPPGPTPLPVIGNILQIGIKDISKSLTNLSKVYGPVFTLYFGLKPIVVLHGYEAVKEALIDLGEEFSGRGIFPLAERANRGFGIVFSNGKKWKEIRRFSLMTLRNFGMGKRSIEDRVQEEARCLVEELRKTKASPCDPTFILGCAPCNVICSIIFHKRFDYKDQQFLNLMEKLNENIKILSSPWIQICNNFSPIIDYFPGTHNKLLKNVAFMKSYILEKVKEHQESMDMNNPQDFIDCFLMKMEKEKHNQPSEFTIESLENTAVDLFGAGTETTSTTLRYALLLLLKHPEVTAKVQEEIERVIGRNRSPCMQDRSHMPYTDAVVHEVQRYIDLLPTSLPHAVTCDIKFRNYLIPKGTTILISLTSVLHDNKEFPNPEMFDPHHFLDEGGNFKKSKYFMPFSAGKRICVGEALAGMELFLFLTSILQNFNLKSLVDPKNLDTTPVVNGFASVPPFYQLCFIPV

Cytochrome P450 2D6 = Cytochrome P450 2D6 (Homo sapiens, UniProt P10635); assay: Inhibition of CYP2D6 in human liver microsomes at 0.01 to 30 uM using dextromethorphan as substrate in presence of NADPH by UPLC-MS/MS analysis; type: ADME, Microsome
Sequence of Cytochrome P450 2D6 (P10635 whole entry): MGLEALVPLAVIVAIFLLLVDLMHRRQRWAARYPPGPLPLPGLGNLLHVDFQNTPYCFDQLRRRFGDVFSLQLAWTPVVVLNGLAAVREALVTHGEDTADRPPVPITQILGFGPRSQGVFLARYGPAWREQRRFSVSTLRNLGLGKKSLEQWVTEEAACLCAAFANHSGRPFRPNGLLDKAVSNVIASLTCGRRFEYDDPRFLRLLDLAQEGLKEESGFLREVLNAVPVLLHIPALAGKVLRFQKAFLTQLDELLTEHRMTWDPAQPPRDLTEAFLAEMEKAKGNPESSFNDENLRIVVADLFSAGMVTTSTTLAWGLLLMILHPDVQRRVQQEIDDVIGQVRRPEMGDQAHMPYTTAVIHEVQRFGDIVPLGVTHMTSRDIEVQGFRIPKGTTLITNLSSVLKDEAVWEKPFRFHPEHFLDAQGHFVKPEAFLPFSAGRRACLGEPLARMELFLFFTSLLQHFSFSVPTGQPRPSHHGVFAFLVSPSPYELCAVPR

Cytochrome P450 3A4 = Cytochrome P450 3A4 (Homo sapiens, UniProt P08684); assay: Inhibition of CYP3A4 in human liver microsomes at 0.01 to 30 uM […] in presence of NADPH by UPLC-MS/MS analysis; type: ADME, Microsome
Sequence of Cytochrome P450 3A4 (P08684 whole entry): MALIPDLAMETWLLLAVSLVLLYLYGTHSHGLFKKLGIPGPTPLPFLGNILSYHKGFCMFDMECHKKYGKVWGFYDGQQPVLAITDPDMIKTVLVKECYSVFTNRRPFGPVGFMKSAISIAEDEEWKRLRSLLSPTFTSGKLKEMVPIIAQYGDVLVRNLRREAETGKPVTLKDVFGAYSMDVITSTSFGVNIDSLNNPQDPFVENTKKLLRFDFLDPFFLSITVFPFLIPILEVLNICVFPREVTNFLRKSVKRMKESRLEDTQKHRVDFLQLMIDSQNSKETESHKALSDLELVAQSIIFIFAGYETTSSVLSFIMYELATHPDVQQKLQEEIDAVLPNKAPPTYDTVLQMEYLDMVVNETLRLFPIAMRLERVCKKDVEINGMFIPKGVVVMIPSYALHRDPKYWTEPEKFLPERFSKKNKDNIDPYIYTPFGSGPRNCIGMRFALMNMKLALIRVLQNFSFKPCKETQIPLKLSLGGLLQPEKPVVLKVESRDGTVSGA

Cytochrome P450 1A2 = molecular target: T1, Cytochrome P450 1A2 (Homo sapiens, UniProt P05177); assay: Inhibition of CYP1A2 in human liver microsomes at 0.01 to 30 uM […] in presence of NADPH by UPLC-MS/MS analysis; type: ADME, Microsome
T1 sequence (P05177 whole entry): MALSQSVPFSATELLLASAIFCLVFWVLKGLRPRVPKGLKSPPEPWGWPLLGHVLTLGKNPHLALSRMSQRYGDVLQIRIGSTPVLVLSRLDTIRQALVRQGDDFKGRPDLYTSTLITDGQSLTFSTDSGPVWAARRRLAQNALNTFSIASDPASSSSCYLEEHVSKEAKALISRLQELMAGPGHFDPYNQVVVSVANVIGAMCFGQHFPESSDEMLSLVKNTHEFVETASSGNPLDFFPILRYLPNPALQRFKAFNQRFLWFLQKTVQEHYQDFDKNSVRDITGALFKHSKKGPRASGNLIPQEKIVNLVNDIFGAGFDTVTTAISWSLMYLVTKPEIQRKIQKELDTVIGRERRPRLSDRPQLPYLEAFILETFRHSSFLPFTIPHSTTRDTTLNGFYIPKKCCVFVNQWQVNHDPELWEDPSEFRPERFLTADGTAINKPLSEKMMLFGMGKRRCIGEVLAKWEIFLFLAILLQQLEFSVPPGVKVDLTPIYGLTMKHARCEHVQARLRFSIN

[5] = Oral bioavailability in overnight fasted ICR mouse at 10 mg/kg measured upto 24 hrs by UPLC-MS/MS analysis; type: ADME, organism-based; conditions: in vivo
[6] = Plasma protein binding in human assessed as unbound fraction at 1 to 100 uM incubated for 16 hrs by UPLC-MS/MS analysis; type: ADME, cell-free; conditions: dose 1-100 µM
[7] = Clearance in ICR mouse at 2 mg/kg, iv measured upto 24 hrs by UPLC-MS/MS analysis; type: ADME, organism-based; conditions: in vivo
[8] = Plasma protein binding in mouse at 1 to 100 uM incubated for 16 hrs by UPLC-MS/MS analysis; type: ADME, cell-free; conditions: dose 1-100 µM, read-out: PPB (converted)
[9] = AUC (0 to infinity) in ICR mouse at 2 mg/kg, iv measured upto 24 hrs by UPLC-MS/MS analysis; type: ADME, organism-based; parameters: dose 2 mg/kg, time < 24 hrs, route iv; conditions: in vivo
[10] = Half life in ICR mouse at 2 mg/kg, iv measured upto 24 hrs by UPLC-MS/MS analysis; type: ADME, organism-based; conditions: in vivo
[11] = Cmax in overnight fasted ICR mouse at 10 mg/kg, po measured upto 24 hrs by UPLC-MS/MS analysis; type: ADME, organism-based; parameters: dose 10 mg/kg, time < 24 hrs, route po; conditions: in vivo
[12] = Plasma protein binding in human at 1 to 100 uM incubated for 16 hrs by UPLC-MS/MS analysis; type: ADME, cell-free; conditions: dose 1-100 µM, read-out: PPB (converted)
[13] = Tmax in overnight fasted ICR mouse at 10 mg/kg, po measured upto 24 hrs by UPLC-MS/MS analysis; type: ADME, organism-based; conditions: in vivo
[14] = MRT(0 to t) in overnight fasted ICR mouse at 10 mg/kg, po measured upto 24 hrs by UPLC-MS/MS analysis; type: ADME, organism-based; conditions: in vivo

CC(C)NC[C@@H](C(=O)N1CC2(C1)CN(c1ncnc3c1[C@H](C)CC(=O)N3)C2)c1ccc(Cl)cc1
IC50 [1]: > 1000 nM

CC(C)NC[C@@H](C(=O)N1CC=C(c2ncnc3c2[C@H](C)CC(=O)N3)CC1)c1ccc(Cl)cc1
IC50 [1]: 951 nM

CC(C)NC[C@@H](C(=O)N1CCN(c2ncnc3c2[C@H](C)CC(=O)N3)C[C@@H]1C)c1ccc(Cl)cc1
IC50 [1]: 220 nM

CC(C)NC[C@@H](C(=O)N1C[C@H]2CC[C@@H](C1)N2c1ncnc2c1[C@H](C)OC(=O)N2)c1ccc(Cl)cc1
IC50 (LNCaP [2]): 236 nM
inhibition in vivo at 50 mg/kg (LNCaP [3]): 28%
AUC(0-inf) [4]: 3030 ng·h/mL
IC50 [1]: 1.6 nM

CC(C)NC[C@@H](C(=O)N1CCN(c2ncnc3c2[C@H](C)C[C@H]3O)CC1)c1ccc(Cl)cc1 [IPATASERTIB]
IC50 (TOV21G): 715 nM
IC50 (CAL-51): 265 nM
IC50 (RL95-2): 331 nM
IC50 (PC-3): 3540 nM
IC50 (T47D): 328 nM
IC50 (ZR-75-1): 1320 nM
IC50 (C-33-A): 726 nM
IC50 (cells): 945 nM

C[C@@H]1CC(=O)Nc2ncnc(N3CCN(C(=O)[C@H](CNC4C5COCC54)c4ccc(Cl)cc4)[C@@H]4C[C@@H]43)c21 (stereo partly specified)
IC50 (Cytochrome P450 2C19): > 30000 nM
IC50 (Cytochrome P450 2C9): > 30000 nM
IC50 (Cytochrome P450 2D6): > 30000 nM
IC50 (Cytochrome P450 3A4): 4330 nM
IC50 [1]: 4.1 nM
IC50 (Cytochrome P450 1A2): > 30000 nM

C[C@@H]1CC(=O)Nc2ncnc(N3CCN(C(=O)[C@H](CN)c4ccc(Cl)cc4)[C@@H]4C[C@@H]43)c21
IC50 (Cytochrome P450 2C19): > 30000 nM
IC50 (Cytochrome P450 2C9): > 30000 nM
IC50 (Cytochrome P450 2D6): > 30000 nM
IC50 (Cytochrome P450 3A4): 10100 nM
IC50 [1]: 6.8 nM
IC50 (Cytochrome P450 1A2): 6480 nM

C[C@@H]1CC(=O)Nc2ncnc(N3CCN(C(=O)[C@H](CNC4CC4)c4ccc(Cl)cc4)[C@@H]4C[C@@H]43)c21
IC50 (Cytochrome P450 2C19): > 30000 nM
IC50 (Cytochrome P450 2C9): > 30000 nM
IC50 (Cytochrome P450 2D6): > 30000 nM
IC50 (Cytochrome P450 3A4): 1090 nM
IC50 (Cytochrome P450 1A2): > 30000 nM

CC(C)NC[C@@H](C(=O)N1C2CCC1CN(c1ncnc3c1[C@H](C)CC(=O)N3)C2)c1ccc(Cl)cc1
IC50 (LNCaP [2]): 79 nM
AUC(0-inf) [4]: 911 ng·h/mL

CC(C)NC[C@@H](C(=O)N1C[C@H]2CC[C@@H](C1)N2c1ncnc2c1N(C)CC(=O)N2)c1ccc(Cl)cc1
IC50 [1]: 30 nM

Cc1c(CO)ncnc1N1CCN(C(=O)[C@H](CNC(C)C)c2ccc(Cl)cc2)CC1
IC50 [1]: > 1000 nM

CC(C)NC[C@@H](C(=O)N1CCC(c2ncnc3c2[C@H](C)CC(=O)N3)CC1)c1ccc(Cl)cc1
IC50 [1]: > 1000 nM

[2H]C1([2H])N(C(=O)[C@H](CNC(C)C)c2ccc(Cl)cc2)C([2H])([2H])C([2H])([2H])N(c2ncnc3c2[C@H](C)CC(=O)N3)C1([2H])[2H]
IC50 (LNCaP [2]): 131 nM
AUC(0-inf) [4]: 947 ng·h/mL
IC50 [1]: 1.6 nM

CC(C)NC[C@@H](C(=O)N1CCN(c2cc[nH]c(=O)c2)CC1)c1ccc(Cl)cc1
IC50 [1]: > 1000 nM

CC(C)NC[C@@H](C(=O)N1CC2CCC(C1)N2c1ncnc2c1[C@H](C)CC(=O)N2)c1ccc(Cl)cc1
IC50 (LNCaP [2]): 446 nM
AUC(0-inf) [4]: 1480 ng·h/mL

CC(C)NC[C@@H](C(=O)N1CC2CC1CN2c1ncnc2c1[C@H](C)CC(=O)N2)c1ccc(Cl)cc1 (stereo partly specified)
IC50 [1]: 414 nM

CC(C)NC[C@@H](C(=O)N1CCN(c2ncnc3c2[C@H](C)OC(=O)N3)[C@H]2C[C@H]21)c1ccc(Cl)cc1
IC50 (LNCaP [2]): 201 nM
bioavailability [5]: 26.5%
inhibition in vivo at 50 mg/kg (LNCaP [3]): 94.1%
AUC(0-inf) [4]: 2580 ng·h/mL
IC50 [1]: 0.6 nM

CC(C)NC[C@@H](C(=O)N1[C@@H]2CC[C@H]1CN(c1ncnc3c1[C@H](C)OC(=O)N3)C2)c1ccc(Cl)cc1
IC50 (LNCaP [2]): 84 nM
AUC(0-inf) [4]: 727 ng·h/mL
IC50 [1]: 0.6 nM

COC1CCC(NC[C@@H](C(=O)N2CCN(c3ncnc4c3[C@H](C)CC(=O)N4)[C@H]3C[C@H]32)c2ccc(Cl)cc2)CC1 (stereo partly specified)
IC50 (Cytochrome P450 2C19): 30000 nM
IC50 (Cytochrome P450 2C9): 30000 nM
IC50 (Cytochrome P450 2D6): 30000 nM
IC50 (Cytochrome P450 3A4): 1810 nM
IC50 [1]: 1.3 nM
IC50 (Cytochrome P450 1A2): 30000 nM

CC(C)NC[C@@H](C(=O)N1C2CCC1CN(c1ncnc3c1N(C)CC(=O)N3)C2)c1ccc(Cl)cc1.O=CO
IC50 (LNCaP [2]): 279 nM
inhibition in vivo at 50 mg/kg (LNCaP [3]): 34.5%
AUC(0-inf) [4]: 2290 ng·h/mL

CC(C)NC[C@@H](C(=O)N1CCN(c2ncnc3c2[C@H](C)CC(=O)N3)CC1)c1ccc(Cl)cc1
IC50 (LNCaP [2]): 103 nM
IC50 (Cytochrome P450 2C19): > 50000 nM
fraction unbound at 16 h, up to 100 µM [6]: 0.513
clearance [7]: 178 mL/min/kg
IC50 (Cytochrome P450 2C9): > 50000 nM
bioavailability [5]: 26.6%
fraction unbound at 16 h, up to 100 µM [8]: 0.477
AUC(0-inf) [9]: 181 ng·h/mL
half-life [10]: 1.56 h
Cmax [11]: 84.3 ng/mL
IC50 (Cytochrome P450 2D6): > 50000 nM
fraction unbound at 16 h, up to 100 µM [12]: 0.513
Tmax [13]: 2 h
IC50 (Cytochrome P450 3A4): 39200 nM
inhibition in vivo at 50 mg/kg (LNCaP [3]): 50%
AUC(0-inf) [4]: 241 ng·h/mL
MRT last at 24 h [14]: 2.23 h
IC50 [1]: 1.6 nM
IC50 (Cytochrome P450 1A2): 25200 nM

CC(C)NC[C@@H](C(=O)N1CCN(c2ncnc3c2[C@@H](C)CC(=O)N3)CC1)c1ccc(Cl)cc1
IC50 [1]: > 1000 nM
